Measurements taken from patent US20240376076A1, “INHIBITORS TARGETING UBIQUITIN SPECIFIC PROTEASE 7 (USP7)” (Dana-Farber Cancer Institute, Inc., priority 2021, published 2024).

Legend:
[1] = mouse liver microsomal stability (Microsome Assay Protocol); format: in vitro ADME; conditions: pH 7.4; mouse liver microsomes, NADPH, 37° C.; read-out: MLM t1/2, min
Outline: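 Compound at 1.5 μM was mixed with 0.75 mg/mL mouse liver microsomes in 0.1 M potassium phosphate, 1.0 mM EDTA, pH 7.4, then started with NADPH from a 6 mM stock after 5 min preincubation at 37 °C. Samples taken at 0, 5, 15, 30 and 45 min were quenched with acetonitrile containing internal standard and analysed by LC/MS.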

[2] = biological target: T1, USP7, Active human recombinant protein (Homo sapiens, UniProt Q93009); test: USP7 assay (Ubiquitin-Rhodamine 110 enzymatic assay); format: biochemical; conditions: read-out: IC50
T1 construct: purchased CP Lot; 20200225001
T1 sequence (Q93009 whole entry): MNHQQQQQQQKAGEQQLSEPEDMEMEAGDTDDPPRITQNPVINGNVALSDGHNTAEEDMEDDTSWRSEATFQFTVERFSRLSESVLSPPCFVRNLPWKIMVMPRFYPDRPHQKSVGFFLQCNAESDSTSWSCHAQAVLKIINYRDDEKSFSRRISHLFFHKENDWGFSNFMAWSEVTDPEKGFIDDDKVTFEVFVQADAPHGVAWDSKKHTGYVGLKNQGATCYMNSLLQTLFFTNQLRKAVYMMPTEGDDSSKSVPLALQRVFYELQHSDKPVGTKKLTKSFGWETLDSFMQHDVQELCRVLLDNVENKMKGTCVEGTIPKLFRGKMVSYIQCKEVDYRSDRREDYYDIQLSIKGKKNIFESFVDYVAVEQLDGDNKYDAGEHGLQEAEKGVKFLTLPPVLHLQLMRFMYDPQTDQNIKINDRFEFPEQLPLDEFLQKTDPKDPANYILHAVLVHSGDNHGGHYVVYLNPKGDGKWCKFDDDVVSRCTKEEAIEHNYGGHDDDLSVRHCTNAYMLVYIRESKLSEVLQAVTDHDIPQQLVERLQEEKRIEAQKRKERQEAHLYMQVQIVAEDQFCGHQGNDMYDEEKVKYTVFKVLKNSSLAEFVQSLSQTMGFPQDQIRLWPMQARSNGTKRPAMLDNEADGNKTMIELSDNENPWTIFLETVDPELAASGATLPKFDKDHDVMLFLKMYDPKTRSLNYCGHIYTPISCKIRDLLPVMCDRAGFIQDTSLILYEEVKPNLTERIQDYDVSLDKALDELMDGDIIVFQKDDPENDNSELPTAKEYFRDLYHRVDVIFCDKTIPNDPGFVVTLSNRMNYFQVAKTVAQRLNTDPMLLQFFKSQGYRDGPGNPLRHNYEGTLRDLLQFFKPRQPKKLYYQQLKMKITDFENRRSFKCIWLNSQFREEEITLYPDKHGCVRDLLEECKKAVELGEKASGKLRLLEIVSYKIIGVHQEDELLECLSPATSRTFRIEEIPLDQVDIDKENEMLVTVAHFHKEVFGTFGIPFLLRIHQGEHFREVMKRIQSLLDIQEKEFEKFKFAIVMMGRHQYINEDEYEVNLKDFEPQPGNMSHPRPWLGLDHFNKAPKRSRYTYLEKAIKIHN
Outline: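 Human recombinant USP7 (0.05 nM final) preincubated with compound, 10-point 3-fold series, 15 min at RT. Reaction started with 190 nM ubiquitin-rhodamine 110. Fluorescence (ex 485/em 535 nm) read kinetically 20 min. Slopes normalized to enzyme+substrate and substrate-only controls; IC50 from curve fit.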

[3] = plasma stability (Plasma Assay Protocol); format: in vitro ADME; conditions: 37° C., t1/2 extrapolated if >50% remaining at 60 min, ∞ if near 100% remaining
Protocol: ND refers to not disclosed.
• 1. Preheated 0.05 M sodium phosphate and 0.07 M NaCl buffer, pH 7.4. Dissolved 14.505 g/L Na2HPO4·12H2O, 1.483 g/L NaH2PO4·2H2O and 4.095 g/L NaCl in deionized water. The basic solution was then titrated with the phosphoric acid to pH 7.40. Stored in fridge up to 7 days. Checked pH on the day of experiment and adjust if outside specification of 7.4+/−0.1. • 2. Plasma preparation: • Thawed frozen plasma by placing at 37° C. quickly. Centrifuged plasma at 3,000 rpm for 8 minutes to remove clots, pipetted and pooled the supernatant as the plasma to be used in the experiment. Checked and recorded the pH of the plasma. Only used plasma within the range of pH 7.4 to pH 8. If higher than pH 8, discarded the plasma. By using a 5% CO2 incubator and PBS buffer, a pH of 7.4 was reached after the 4 hour equilibrium dialysis time. Put the plasma on ice until used. • 3. Tested compounds and reference compounds spiking solution: • 0.5 mM test compounds spiking solution A: Added 10 μL of 10 mM test compounds stock solution to 190 μL DMSO. • 0.02 mM spiking solution B: Added 40 μL of spiking solution A to 960 μL of […] Sodium phosphate buffer with 0.5% BSA.
Pre-warmed the plasma and spiking solution B at 37° C. for 5 min. Added 10 μL of pre-warmed spiking solution B into the wells designated for all the time points (5, 15, 30, 45, 60 min).
For 0-min, added 400 μL of acetonitrile (ACN) containing the internal standard (IS) to the wells of 0-min plate and then added 90 μL of plasma. Added 90 μL of pre-warmed plasma into the wells designated for the time points (0, 5, 15, 30, 45, 60 min), and started timing. At 5, 15, 30, 45, 60 min, added 400 μL of ACN containing IS to the wells of corresponding plates, respectively, to stop the reaction. After quenching, shook the plates at the vibrator (IKA, MTS 2/4) for 10 min (600 rpm/min) and then centrifuged at 5594 g for 15 min (Thermo Multifuge×3R). Transferred 50 μL of the supernatant from each well into a 96-well sample plate containing 50 μL of ultra pure water (Millipore ZMQS50F01) for LC/MS analysis.

| Compound | half-life at 1 µM [1] [min] | IC50 [2] [nM] | half-life at 2 µM [3] [h] | Plasma t1/2, min [3] |
| --- | --- | --- | --- | --- |
| CN(C)CCCOc1ccc2c(=O)n(CC3(O)CCN(C(=O)[C@H](CCCNC(=O)c4ccc5c(Cl)cc(C6CC6)nc5c4)Cc4ccccc4)CC3)cnc2c1 | 27.1 | < 20 | – | ∞* |
| CN(C)CCCOc1ccc2c(=O)n(CC3(O)CCN(C(=O)[C@H](CCCNC(=O)c4ccc5c(Cl)c(C(N)=O)cnc5c4)Cc4ccccc4)CC3)cnc2c1 | 46.6 | < 20 | 1.86 | – |
| CN(C)CCCOc1ccc2c(=O)n(CC3(O)CCN(C(=O)[C@H](CCCNC(=O)c4ccc5c(Cl)c(C(=O)NC6CC6)cnc5c4)Cc4ccccc4)CC3)cnc2c1 | 44.1 | < 20 | 0.481 | – |
| CN(C)CCCOc1ccc2c(=O)n(CC3(O)CCN(C(=O)C(CCCNC(=O)c4ccc5c(Cl)c(C(N)=O)cnc5c4)Cn4ccc(F)n4)CC3)cnc2c1 (centres unmarked) | 131 | < 20 | 1.43 | – |
| CN(C)CCCOc1ccc2c(=O)n(CC3(O)CCN(C(=O)[C@@H](CCCNC(=O)c4ccc5c(Cl)c(C(N)=O)cnc5c4)Cn4ccc(F)n4)CC3)cnc2c1 | 223 | < 20 | 1.43 | – |
| CN(C)CCCOc1ccc2c(=O)n(CC3(O)CCN(C(=O)[C@H](Cc4ccccc4)N(C)CCNC(=O)c4ccc5c(Cl)c(C(N)=O)cnc5c4)CC3)cnc2c1 | 101 | > 1000 | 2.48 | – |
| CN(C)CCCOc1ccc2c(=O)n(CC3(O)CCN(C(=O)C(CCCNC(=O)c4ccc5c(Cl)cc(C6CC6)nc5c4)Cn4ccc(F)n4)CC3)cnc2c1 (centres unmarked) | 17 | < 20 | 3.14 | – |
| CN(C)CCCOc1ccc2c(=O)n(CC3(O)CCN(C(=O)C(CCCNC(=O)c4ccc5c(Cl)c6c(nc5c4)CCCC6)Cn4ccc(F)n4)CC3)cnc2c1 (centres unmarked) | 2.46 | < 20 | 6.6 | – |
| CN(C)CCCOc1ccc2c(=O)n(CC3(O)CCN(C(=O)[C@@H](CCCNC(=O)c4ccc5c(Cl)c6c(nc5c4)CCCC6)Cn4ccc(F)n4)CC3)cnc2c1 | 6.96 | – | 2.12 | – |
| O=C(NCCC[C@@H](Cc1ccccc1)C(=O)N1CCC(O)(Cn2cnc(NCCN3CCCC3)cc2=O)CC1)c1ccc2c(Cl)ccnc2c1 [Compound 13, N-(4-benzyl-5-(4-hydroxy-4-((6-oxo-4-(2-(pyrrolidin-1-yl)ethylamino)pyrimidin-1(6H)-yl)methyl)piperidin-1-yl)-5-oxopentyl)-4-chloroquinoline-7-carboxamide] | – | 20 to 100 | 1.53 | – |
| C=CS(=O)(=O)Nc1ccccc1-c1ccc(C(=O)N2CCC(O)(Cn3cnc4cc(NC(=O)CCN5CCN(C)CC5)ccc4c3=O)CC2)cc1 [Compound 23, N-(3-((4-hydroxy-1-(2′-(vinylsulfonamido)-[1,1′-biphenyl]-4-carbonyl)piperidin-4-yl)methyl)-4-oxo-3,4-dihydroquinazolin-7-yl)-3-(4-methylpiperazin-1-yl)propanamide] | 49.3 | 20 to 100 | 0.175 | – |
| C=CC(=O)Nc1ccccc1-c1ccc(C(=O)N2CCC(O)(Cn3cnc4cc(NC(=O)CCN5CCN(C)CC5)ccc4c3=O)CC2)cc1 [Compound 24, N-(4′-(4-hydroxy-4-((7-(3-(4-methylpiperazin-1-yl)propanamido)-4-oxoquinazolin-3(4H)-yl)methyl)piperidine-1-carbonyl)biphenyl-2-yl)acrylamide] | – | > 1000 | 0.383 | – |
| Cc1nc2c(=O)n(CC3(O)CCN(C(=O)C4CCN(CCNC(=O)c5ccc6c(Cl)ccnc6c5)CC4c4ccccc4)CC3)cnc2n1-c1ccc(F)cc1 (centres unmarked) [Compound 110] | 2.21 | 100 to 1000 | – | – |
| CC(C)c1cc(Cl)c2ccc(C(=O)NCCC[C@H](Cc3ccccc3)C(=O)N3CCC(O)(Cn4cnc5cc(OCCCN(C)C)ccc5c4=O)CC3)cc2n1 [Compound 120] | 5.89 | < 20 | – | – |

The remaining lines, values ahead:

| half-life at 1 µM [1] [min] | IC50 [2] [nM] | half-life at 2 µM [3] [h] | Plasma t1/2, min [3] | Compound |
| --- | --- | --- | --- | --- |
| 2 | < 20 | > 8.33 | – | CN1CCN(CCC(=O)Nc2ccc3c(=O)n(CC4(O)CCN(C(=O)[C@@H](CCCNC(=O)c5ccc6c(Cl)c7c(nc6c5)CCCC7)Cc5ccccc5)CC4)cnc3c2)CC1 |
| 11 | 20 to 100 | 5.46 | – | CN1CCN(CCC(=O)Nc2ccc3c(=O)n(CC4(O)CCN(C(=O)C(CCCNC(=O)c5ccc6c(Cl)ccnc6c5)Cc5ccccc5)CC4)cnc3c2)CC1 (centres unmarked) |
| 0.56 | < 20 | 6.56 | – | O=C(NCCCC(Cn1ccc(F)n1)C(=O)N1CCC(O)(Cn2cnc3ccccc3c2=O)CC1)c1ccc2c(Cl)c3c(nc2c1)CCCC3 (centres unmarked) |
| 18 | 100 to 1000 | 5.33 | – | CN1CCN(CCC(=O)Nc2ccc3c(=O)n(CC4(O)CCN(C(=O)[C@@H](CCCNC(=O)c5ccc6c(Cl)cc(-c7ccc(F)cc7)nc6c5)Cc5ccccc5)CC4)cnc3c2)CC1 [Compound 5, (S)—N-(4-benzyl-5-(4-hydroxy-4-((7-(3-(4-methylpiperazin-1-yl)propanamido)-4-oxoquinazolin-3(4H)-yl)methyl)piperidin-1-yl)-5-oxopentyl)-4-chloro-2-(4-fluorophenyl)quinoline-7-carboxamide] |
| 25.8 | 20 to 100 | 3.77 | – | CN1CCN(CCC(=O)Nc2ccc3c(=O)n(CC4(O)CCN(C(=O)[C@@H](CCCNC(=O)c5ccc6c(Cl)cc(-c7cnn(CC(F)(F)F)c7)nc6c5)Cc5ccccc5)CC4)cnc3c2)CC1 [Compound 20] |
| 18.3 | 20 to 100 | 2.25 | – | CN1CCN(CCC(=O)Nc2ccc3c(=O)n(CC4(O)CCN(C(=O)C(CCCNC(=O)c5ccc6c(Cl)cc(C7CC7)nc6c5)Cc5ccccc5)CC4)cnc3c2)CC1 (centres unmarked) [Compound 22] |
| 15.7 | 20 to 100 | 112 | – | CN1CCN(CCOc2ccc3c(=O)n(CC4(O)CCN(C(=O)C(CCCNC(=O)c5ccc6c(Cl)ccnc6c5)Cc5ccccc5)CC4)cnc3c2)CC1 (centres unmarked) [Compound 30, N-(4-benzyl-5-(4-hydroxy-4-((7-(2-(4-methylpiperazin-1-yl)ethoxy)-4-oxoquinazolin-3(4H)-yl)methyl)piperidin-1-yl)-5-oxopentyl)-4-chloroquinoline-7-carboxamide] |
| 8.3 | 20 to 100 | 3.09 | – | CN(C)CCC(=O)Nc1ccc2c(=O)n(CC3(O)CCN(C(=O)C(CCCNC(=O)N4CCc5c(Cl)ccnc5C4)Cc4ccccc4)CC3)cnc2c1 (centres unmarked) [Compound 43] |
| – | 20 to 100 | 1.32 | – | CN1CCN(CCC(=O)Nc2ccc3c(=O)n(CC4(O)CCN(C(=O)[C@@H](CCCNC(=O)c5ccc6c(Cl)ccnc6c5)Cc5ccccc5)CC4)cnc3c2)CC1 [Compound 59, (S)—N-(4-benzyl-5-(4-hydroxy-4-((7-(3-(4-methylpiperazin-1-yl)propanamido)-4-oxoquinazolin-3(4H)-yl)methyl)piperidin-1-yl)-5-oxopentyl)-4-chloroquinoline-7-carboxamide] |
| 11.8 | 20 to 100 | – | – | CN(C)CCC(=O)Nc1ccc2c(=O)n(CC3(O)CCN(C(=O)C(CCCNC(=O)c4ccc5c(Cl)ccnc5c4)Cc4ccc(F)cc4)CC3)cnc2c1 (centres unmarked) [Compound 81] |
| 3.34 | 20 to 100 | – | – | CN(C)CCC(=O)Nc1ccc2c(=O)n(CC3(O)CCN(C(=O)C(CCCNC(=O)c4ccc5c(Cl)c6c(nc5c4)COCC6)Cc4ccccc4)CC3)cnc2c1 (centres unmarked) [Compound 89] |
| 3.04 | < 20 | – | – | CC(C)c1cnc2cc(C(=O)NCCC[C@H](Cc3ccccc3)C(=O)N3CCC(O)(Cn4cnc5cc(NC(=O)CCN(C)C)ccc5c4=O)CC3)ccc2c1Cl [Compound 119] |
| 6 | < 20 | – | – | CN(C)CCCOc1ccc2c(=O)n(CC3(O)CCN(C(=O)[C@H](CCCNC(=O)c4ccc5c(Cl)c6c(nc5c4)CC(C)(C)C6)Cc4ccccc4)CC3)cnc2c1 [Compound 121] |
